The values below come from patent publication US7985774B2, “Use of 3,5-seco-4-nor-cholestane derivatives for obtaining a cytoprotective drug” (Trophos, priority 2006, dated 2011).

One assay has as its system C57BL6 mice. Nature of the assay: In vivo model of myocardium infarction (coronary occlusion-reperfusion). How it is done: The purpose of this experiment is to study in vivo the cardioprotective properties of the compounds, 3,5-seco-4-nor-cholestan-5-one oxime-3-ol and 3,5-seco-4-nor-cholestan-5-one oxime-3-N,N-dimethylglycine ester, in a murine coronary occlusion-reperfusion model.
The compounds to be tested are administered intravenously in mice, 5 minutes before reperfusion of the myocardium ischemiated beforehand. As controls, carriers of the compounds beta-cyclodextrin (hereafter called βCD) and water, respectively, are administered under the same conditions as for the compounds.
In order to determine the effect of the tested compounds, the size of the infarction is measured after 24 hour reperfusion.
6-8 week old male C57BL6 mice are anaesthetized with sodium pentobarbital (50 mg/kg i.p.) and are ventilated after intubation with an O2/CO2 (95%/5%) mixture throughout the experiment. The surface electrocardiogram (ECG) is recorded and viewed on an oscilloscope all along surgery. Under strict asepsis conditions, the jugular vein is catheterized for intravenous administration of the compounds. A left lateral thoracotomy is performed and after pericardiotomy, a major branch of the left coronary artery is localized in the latero-posterior region of the left ventricle. A prolene no. 8 suture is positioned around this artery so as to form a mobile loop for making a temporary coronary occlusion.
All the mice were subject to a 30 minute temporary coronary occlusion. Ischemia of the myocardium region is confirmed by cyanosis of the myocardium surface and a deviation of the ST segment of the electrocardiogram.
Each of the compounds (treated group, n=10) or its solvent (control group, n=10) was administered as a bolus intravenously, 5 min before lifting the 30 minutes of coronary occlusion.
3,5-seco-4-nor-cholestan-5-one oxime-3-ol, dissolved beforehand to a final concentration of 0.46 mg/ml in a 30% βCD solution in phosphate buffer prepared by saturation followed by centrifugation, is administered at a dosage of 1 mg/kg.
3,5-seco-4-nor-cholestan-5-one oxime-3-N,N-dimethylglycine ester, dissolved beforehand to a final concentration of 1.56 mg/ml in sterile water by stirring and sonication, is administered at a dosage of 3.9 mg/kg.
The same volume of carrier is administered in the corresponding control groups.
Twenty four hours after the end of coronary occlusion, the mice are re-anaesthetized with sodium pentobarbital (50 mg/kg i.p.) and heparin is administered intravenously (Choay© heparin 1,000 IU/kg). A ligature of the coronary artery is achieved at the same location having been subject to the first occlusion 24 h previously. The mice are then euthanized with a lethal saturated dose of potassium chloride and their heart is rapidly excised and then mounted through the aorta artery on a retrograde perfusion system of the Langendorff type.
A 5% Evans blue solution is perfused retrogradely so that the healthy myocardium is colored in blue; the area made ischemic during the coronary occlusion, or <<area of risk AR>> remaining uncolored by default.
The left ventricle is then cut out into 5 slices with equal thicknesses (1 mm) by means of a slicer specially designed for hearts of mice (Les Isolants de Paris, Palaiseau), which are then weighed.
These slices are incubated in a 1% triphenyltetrazolium chloride solution (TTC, Sigma, Poole, UK) at pH 7.4 for 20 min at 37° C. and then set in 4% formol. TTC has the property of coloring the non-infarcted myocardium in red, and so showing the infarcted areas in white. Each heart slice is placed under a stereo microscope for taking a high definition digital photograph.
Quantification of infarction and the area of risk is carried out by planimetry (Scion Image, Scion, Frederick Md., USA) and referred to the weight of each slice.
The area of risk (non-blue area) is expressed as a percentage of the weight of the left ventricle. The infarction sizes are expressed as a percentage of the weight of the area of risk. […]

Assay [1] concerns rabbit ventricular cardiomyocytes. Briefly: Annexin V marking of phosphatidylserine (apoptosis) after doxorubicin. It is filed as cell-based. The settings on record: 3 hrs after doxorubicin, control 100%. The procedure:
Isolated ventricular cells are obtained from hearts of male New Zealand rabbits as described in A. d'Anglemont de Tassigny et al., Fund. Clin. Pharmacol, 18: 531-38, 2004. Briefly, the rabbits (2.0-2.5 kg) are anaesthetized with a pentobarbital solution (50 mg/kg) and they then receive heparin (200 IU/kg). The hearts are excised and immediately perfused, for 10-15 minutes by means of a Langendorff apparatus without recirculation with an oxygenated tyrode (calcium-free) isotonic solution (95%, 2-5% CO2) (in mM: NaCl 135, KCl 5.4, Na2PO4 0.33, MgCl2 1.0, HEPES 10, pH adjusted to 7.4 with 1N NaOH at 37° C., 280-300 mOsmol/kgH2O). Next, all the hearts are perfused for 3 minutes in the “recirculation” mode with the same calcium-free Tyrode solution (coronary flow rate, 10-15 mL/min) added with 1 mg/mL of type II collagenase and 0.28 mg/mL of XIV type protease. Finally, all the hearts are perfused in a mode without any recirculation with the same solution of Tyrode supplemented with 0.3 mM of CaCl2 for 10 min. The left ventricle is removed and cut into small pieces; cell dissociation is achieved by mild mechanical stirring. Extracellular calcium is added by increments every 15 minutes, in order to reach a physiological concentration of 1.0 mM. […]
Annexin V marking of phosphatidylserine was used as a quantitative method for measuring apoptosis by using the MiniMacs cell isolation kit (Miltenyi Biotec, Bergisch, Gladbach, Germany). […] The column is removed from the magnetic field, the cells exposing phosphatidylserine, magnetically retained, are eluted as a positive fraction and counted with a Mallassez cell counter. […]
Apoptosis is induced in isolated cardiomyocytes by 3-8 hour exposure to 1 μM of doxorubicin added into an isotonic solution containing (in mM) NaCl 110, KCl 5.4, Na2PO4 0.33, NaHCO3 25, glucose 5, MgCl2 0.8, CaCl2 1, pH adjusted to 7.4. […] The contractility of cardiomyocytes was measured every hour during the 8 hrs of exposure to doxorubicin. […]

The mark [2] stands for this setting: 1 mg/kg i.v. bolus in βCD 5 min before reperfusion, 30 min occlusion, 24 h reperfusion, mean±SEM.

With `CC(C)CCC[C@@H](C)[C@H]1CC[C@H]2[C@@H]3CC/C(=N\O)[C@](C)(CCCO)[C@H]3CC[C@]12C` [3,5-seco-4-nor-cholestan-5-one oxime-3-ol], in the assay with C57BL6 mice (setting [2]), the “Area of risk (percentage of the weight of the left ventricle)” value is recorded as 9 +/− 4% and the “Infarction size (percentage of the weight of the area of risk)” value is reported as 21 +/− 7%. This compound yielded an Infarction size reduction with C57BL6 mice (1 mg/kg i.v., versus carrier (βCD)) of 36.4%. Moreover, the “Apoptosis as % of change in annexin V marking” value in assay [1] (doxorubicin 1 μM + compound 0.1 μM) is listed as 116.3%. The “Apoptosis as % of change in annexin V marking” value in assay [1] (doxorubicin 1 μM + compound 0.3 μM) amounted to 137.3%.
